Measurements from article PMC4160091 (Frontiers in Cellular Neuroscience, 2014).
“Also recorded” adds a separate entry of the source.

What was measured:
NT binding sites = conditions: rat, 5–9 days after the birth; ref Lépée-Lorgeoux et al., 1999; cited from earlier work
Source text: This is similar to that reported previously for somatostatin and benzodiazepine binding sites ([Najimi et al., 1991], [2001]). […] We cannot exclude also that these hypothalamic structures have not yet completed their neuronal maturation ([Kopp et al., 1992]). Studies on older ages should reveal the ...

[1] = target: T1, NT binding sites, human hypothalamus (neonate/infant) (Homo sapiens, UniProt P30989); experiment: Levocabastine competition with specific 125I-NT binding (competition experiments and autoradiography); conditions: all hypothalamic nuclei and areas in all cases
T1 construct: The frozen hypothalami were then sliced as 20 μm thick coronal sections; from tissue; host or cells: postmortem human neonate/infant hypothalamus, 20 μm frozen coronal sections
T1 sequence (P30989 whole entry): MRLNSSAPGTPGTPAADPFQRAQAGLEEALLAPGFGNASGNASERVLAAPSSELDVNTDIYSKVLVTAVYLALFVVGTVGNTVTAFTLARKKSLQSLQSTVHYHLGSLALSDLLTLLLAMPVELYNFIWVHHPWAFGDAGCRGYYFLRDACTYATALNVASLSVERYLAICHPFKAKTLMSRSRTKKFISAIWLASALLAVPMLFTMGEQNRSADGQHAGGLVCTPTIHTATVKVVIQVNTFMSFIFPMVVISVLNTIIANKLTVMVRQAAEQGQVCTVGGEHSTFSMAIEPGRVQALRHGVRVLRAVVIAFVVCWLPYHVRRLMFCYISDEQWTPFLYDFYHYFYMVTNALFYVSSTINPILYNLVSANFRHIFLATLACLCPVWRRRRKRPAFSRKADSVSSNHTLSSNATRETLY
Description: After incubation, the slides were washed with ice cold buffer four times for 2 min each and rapidly dried with cold air. Labeled sections and iodinated standards (Amersham, Courtaboeuf Cedex, France) were then apposed to 3H sensitive Ultrofilm (Amersham) in Amersham exposure cassettes. After 2 weeks exposure in dark conditions at 4°C, the film was developed in Kodak D19 (Eastman Kodak, Rochester, NY, USA) for 3 min, dipped in water and fixed with Kodak rapid fixer for 10 min.
Kinetics (IC50 and KD) analysis was computed by the method of [Parker and Waud (1971)].

NT2 receptor = conditions: reference not given; cited from earlier work

SMILES	number of NT binding sites after blockade of neurotransmission (NT binding sites)	inhibition of specific 125I-NT binding by levocabastine [1]	affinity for the NT2 receptor, in words (NT2 receptor)
COc1cccc(OC)c1-c1cc(C(=O)NC2(C(=O)O)C3CC4CC(C3)CC2C4)nn1-c1ccnc2cc(Cl)ccc12 (stereo not drawn) [SR 48692]	increases greatly the number of NT binding sites	–	–
C[C@@H]1CN([C@H]2CC[C@](C#N)(c3ccc(F)cc3)CC2)CC[C@]1(C(=O)O)c1ccccc1 [levocabastine]	–	insensitivity to levocabastine; also recorded: did not inhibit specific binding of ^125I-NT	has affinity for the NT2 receptor
